Test system: sirtuin activity in the lung tissue
Experiment: repeated application of a solution containing ectoine into the lungs of rats; sirtuin activity in the lung tissue
Format: in vivo
Source text: The composition proposed by the invention can generally be adopted for the treatment and/or prophylaxis of aging symptoms and for influencing self-renewal processes, cell differentiation and cell proliferation. The composition is of particular importance in the treatment of aging symptoms of the lung, especially of the senile emphysema. This is characterized by the degeneration of the alveolar structures in the lungs, which leads to a reduction of the lung surface which is available for the exchange of gas. In such cases, the patient finds it hard to breathe properly. […] The aging of tissue is attributable to an altered gene activity during the self-renewal and cell differentiation processes in (lung) tissue, which is regulated by the accessibility of DNA by histones and is thus also dependent on sirtuins.

CC1=NCC[C@@H](C(=O)O)N1 (stereo in doubt) [ectoine, 2-methyl-1,4,5,6-tetrahydropyrimidine-4-carboxylic acid]
loss of sirtuin activity in the lung tissue: significant reduction of the loss of sirtuin activity

— patent publication US20190117651A1, “COMPOSITION FOR STIMULATING SIRTUIN ACTIVITY” (Bitop AG, priority 2016, published 2019)
